Measurements taken from patent publication US20090264477A1, “BETA ADRENERGIC RECEPTOR AGONISTS FOR TREATMENT OF PAIN AND/OR INFLAMMATION” (Warsaw Orthopedic, Inc., An Indiana Corporation, priority 2008, published 2009).

How the values were obtained:
[1] = test system: rat Chronic Constriction Injury model (Bennett Model); test: Hargreaves test (thermal paw withdrawal latency, thermal hyperalgesia) in rat Chronic Constriction Injury model; format: in vivo, Wistar rats
Excerpt: The inventors evaluated the efficacy of a various beta-2-adrenergic receptor agonists and compared them to clonidine (an alpha-2-agonist) and saline in the rat Chronic Constriction Injury model (i.e., Bennett Model) using Wistar rats. The purpose: To determine whether the beta-2-adrenergic receptor agonists can improve pain associated behavioral responses in a rat model of neuropathic pain.
The doses given would mimic those achievable by a continuous release drug depot containing a biodegradable polymer (7 rats in each group).

[2] = test system: rat Chronic Constriction Injury model (Bennett Model); test: von Frey test (mechanical threshold, mechanical allodynia) in rat Chronic Constriction Injury model; format: in vivo, Wistar rats
Experimental: The inventors evaluated the efficacy of a various beta-2-adrenergic receptor agonists and compared them to clonidine (an alpha-2-agonist) and saline in the rat Chronic Constriction Injury model (i.e., Bennett Model) using Wistar rats.
Hargreaves tests were conducted on days 7 and 14; […], where some drug compositions having predominantly beta-2 agonist activity were compared to clonidine a drug composition that has predominantly alpha-2 agonist activity and saline. The doses given would mimic those achievable by a continuous release drug depot containing a biodegradable polymer (7 rats in each group). […]
FIG. 4 is a graphic representation of the mechanical threshold as a percentage from baseline in rats given clonidine 0.02 mg/kg, ritodrine 5 mg/kg, ritodrine 2 mg/kg, salbutamol 10 mg/kg, salbutamol 5 mg/kg, terbutaline 0.5 mg/kg, terbutaline 0.1 mg/kg, and saline subcutaneously every day for 15 days. […]

[3] = 5 mg/kg subcutaneous every day for 15 days, day 14

CC(C)(C)NCC(O)c1cc(O)cc(O)c1 (centres unmarked) [terbutaline]
pain behavioral response for thermal hyperalgesia (thermal paw withdrawal latency, percentage of baseline) compared with saline group ([1]; 0.1 mg/kg subcutaneous every day for 15 days, days 7 and 14): statistically significant result of decreasing pain responses | pain behavioral response for thermal hyperalgesia (thermal paw withdrawal latency, percentage of baseline) compared with saline group ([1]; 0.5 mg/kg subcutaneous every day for 15 days, days 7 and 14): statistically significant result of decreasing pain responses | pain behavioral response for mechanical allodynia (mechanical threshold, percentage of baseline) compared with saline group ([2]; 0.5 mg/kg subcutaneous every day for 15 days, day 14): statistically significant result of decreasing pain responses

CC(C)(C)NCC(O)c1ccc(O)c(CO)c1 (centres unmarked) [salbutamol]
pain behavioral response for thermal hyperalgesia (thermal paw withdrawal latency, percentage of baseline) compared with saline group ([1]; 5 mg/kg subcutaneous every day for 15 days, days 7 and 14): statistically significant result of decreasing pain responses | pain behavioral response for thermal hyperalgesia (thermal paw withdrawal latency, percentage of baseline) compared with saline group ([1]; 10 mg/kg subcutaneous every day for 15 days, days 7 and 14): statistically significant result of decreasing pain responses | pain behavioral response for mechanical allodynia (mechanical threshold, percentage of baseline) compared with saline group [2, 3]: statistically significant result of decreasing pain responses | pain behavioral response for mechanical allodynia (mechanical threshold, percentage of baseline) compared with saline group ([2]; 10 mg/kg subcutaneous every day for 15 days, days 8 and 15): statistically significant result of decreasing pain responses

Clc1cccc(Cl)c1N=C1NCCN1 [clonidine, 2,6-dichloro-N-2-imidazolidinyldenebenzenamine]
pain behavioral response for thermal hyperalgesia (thermal paw withdrawal latency, percentage of baseline) compared with saline group ([1]; 0.02 mg/kg subcutaneous every day for 15 days, day 14): statistically significant result of decreasing pain responses

CC(NCCc1ccc(O)cc1)C(O)c1ccc(O)cc1 (centres unmarked) [ritodrine]
pain behavioral response for thermal hyperalgesia (thermal paw withdrawal latency, percentage of baseline) compared with saline group ([1]; 2 mg/kg subcutaneous every day for 15 days, day 7): statistically significant result of decreasing pain responses | pain behavioral response for thermal hyperalgesia (thermal paw withdrawal latency, percentage of baseline) compared with saline group [1, 3]: statistically significant result of decreasing pain responses | pain behavioral response for mechanical allodynia (mechanical threshold, percentage of baseline) compared with saline group [2, 3]: statistically significant result of decreasing pain responses
